Laboratory results taken from ChEMBL document CHEMBL1949526, “Cyclic hydroxyamidines as amide isosteres: discovery of oxadiazolines and oxadiazines as potent and highly efficacious γ-secretase modulators in vivo” (J Med Chem, 2012).
Values belong to the compound of their own block, whether it stands above or below them. Calls of active or inactive are those of the source. The calls are words filed in the database; no cut-off is given here.

Columns and labels:
[1] = Aqueous solubility of the compound at pH 3.5; type: physicochemical; details: aqueous medium
[2] = Lipophilicity, log D of the compound at pH 7.4; type: physicochemical; details: buffer
Rattus norvegicus [3] = test: Antialzheimer activity in rat assessed as reduction in amyloid beta42 level in cortex at 30 mg/kg, po; type: functional; design: scale not given: the % may be the effect or the level left
Rattus norvegicus [4] = test: Antialzheimer activity in rat assessed as reduction in amyloid beta42 level in CSF at 30 mg/kg, po; type: functional; design: scale not given: the % may be the effect or the level left
Canis familiaris = species: Canis familiaris; test: Cardiotoxicity in dog assessed as effect on electrocardiographic QTc interval at compound concentration required for pharmacological effect; type: toxicity, organism-based, Canis lupus familiaris; details: in vivo
[5] = Permeability from apical to basolateral side of human Caco2 cells; type: ADME, cell-based; details: Caco-2, read-out: permeability
[6] = biological target: Voltage-gated inwardly rectifying potassium channel KCNH2 (Homo sapiens, UniProt Q12809); test: Inhibition of human ERG by cell based voltage clamp assay
[7] = biological target: T1, Gamma-secretase (Homo sapiens) (UniProt Q96BI3+Q9NZ42+Q8WW43+P49768+Q92542+P49810); test: Modulation of gamma-secretase-mediated cleavage of human APP Swedish and London mutation expressed in HEK293 cells assessed as reduction of total amyloid beta/amyloid beta42 ratio after 5 hrs by sandwich immunoassay; type: cell-based
Gamma-secretase [8] = test: Modulation of gamma-secretase-mediated cleavage of human APP Swedish and London mutation expressed in HEK293 cells assessed as inhibition of amyloid beta42 production after 5 hrs by sandwich immunoassay; type: cell-based
Gamma-secretase [9] = test: Modulation of gamma-secretase-mediated cleavage of human APP Swedish and London mutation expressed in HEK293 cells assessed as reduction of total amyloid beta level after 5 hrs by sandwich immunoassay; type: cell-based
[10] = Dissociation constant, pKa of the compound; type: physicochemical
[11] = Chemical stability of the compound in aqueous 0.1 N HCl/MeOH (1:1) assessed as deterioration of enantiomaric excess after 7 days; type: physicochemical; details: buffer, 168 h
Rattus norvegicus [12] = test: Antialzheimer activity in po dosed CD rat assessed as reduction in amyloid beta42 level in plasma after 3 hrs by alphaLISA analysis relative to total amyloid beta level; type: functional, organism-based
Rattus norvegicus [13] = test: Antialzheimer activity in CD rat assessed as reduction in amyloid beta42 level in CSF administered as po for 6 days by alphaLISA analysis relative to total amyloid beta40 level; type: functional, organism-based
Rattus norvegicus [14] = test: Antialzheimer activity in CD rat assessed as reduction in amyloid beta42 level in plasma administered as po for 6 days by alphaLISA analysis relative to total amyloid beta40 level; type: functional, organism-based
Rattus norvegicus [15] = test: Antialzheimer activity in CD rat assessed as reduction in amyloid beta42 level in plasma administered as po for 6 days by alphaLISA analysis relative to total amyloid beta level; type: functional, organism-based
[16] = biological target: T1, Gamma-secretase (Homo sapiens); test: Modulation of gamma-secretase-mediated cleavage of human APP Swedish and London mutation expressed in HEK293 cells assessed as inhibition of amyloid beta42 production at 10 uM by SELDI-MS analysis; type: cell-based
[17] = biological target: T1, Gamma-secretase (Homo sapiens); test: Modulation of gamma-secretase-mediated cleavage of human APP Swedish and London mutation expressed in HEK293 cells assessed as inhibition of amyloid beta40 production at 10 uM by SELDI-MS analysis; type: cell-based
Rattus norvegicus [18] = test: Antialzheimer activity in po dosed CD rat assessed as reduction in amyloid beta42 level in CSF after 3 hrs by alphaLISA analysis relative to amyloid beta40 level; type: functional, organism-based
Rattus norvegicus [19] = test: Antialzheimer activity in CD rat assessed as reduction in amyloid beta42 level in cortex administered as po for 6 days by alphaLISA analysis relative to total amyloid beta level; type: functional, organism-based
Rattus norvegicus [20] = test: Antialzheimer activity in po dosed CD rat assessed as reduction in amyloid beta42 level in cortex after 3 hrs by alphaLISA analysis relative to amyloid beta40 level; type: functional, organism-based
[21] = biological target: T1, Gamma-secretase (Homo sapiens); test: Modulation of gamma-secretase-mediated cleavage of human APP Swedish and London mutation expressed in HEK293 cells assessed as increase in amyloid beta37 production at 10 uM by SELDI-MS analysis; type: cell-based
[22] = biological target: T1, Gamma-secretase (Homo sapiens); test: Modulation of gamma-secretase-mediated cleavage of human APP Swedish and London mutation expressed in HEK293 cells assessed as increase in amyloid beta38 production at 10 uM by SELDI-MS analysis; type: cell-based
Rattus norvegicus [23] = test: Antialzheimer activity in po dosed CD rat assessed as reduction in amyloid beta42 level in CSF after 3 hrs by alphaLISA analysis relative to total amyloid beta level; type: functional, organism-based
Rattus norvegicus [24] = test: Antialzheimer activity in po dosed CD rat assessed as reduction in amyloid beta42 level in plasma after 3 hrs by alphaLISA analysis relative to amyloid beta40 level; type: functional, organism-based
Rattus norvegicus [25] = test: Antialzheimer activity in CD rat assessed as reduction in amyloid beta42 level in cortex administered as po for 6 days by alphaLISA analysis relative to total amyloid beta40 level; type: functional, organism-based
Rattus norvegicus [26] = test: Antialzheimer activity in CD rat assessed as reduction in amyloid beta42 level in CSF administered as po for 6 days by alphaLISA analysis relative to total amyloid beta level; type: functional, organism-based
Rattus norvegicus [27] = test: Antialzheimer activity in po dosed CD rat assessed as reduction in amyloid beta42 level in cortex after 3 hrs by alphaLISA analysis relative to total amyloid beta level; type: functional, organism-based
[28] = biological target: T1, Gamma-secretase (Homo sapiens); test: Modulation of gamma-secretase-mediated cleavage of human APP Swedish and London mutation expressed in HEK293 cells assessed as inhibition of amyloid beta39 production at 10 uM by SELDI-MS analysis; type: cell-based
[29] = Chemical stability of the compound under neutral conditions; type: physicochemical
Gamma-secretase [30] = test: Modulation of gamma-secretase-mediated cleavage of human APP Swedish and London mutation expressed in HEK293 cells assessed as inhibition of amyloid beta40 production after 5 hrs by sandwich immunoassay; type: cell-based
[31] = Chemical stability of the compound in aqueous 0.1 N HCl assessed as decomposition to corresponding acetophenone after 3 hrs; type: physicochemical; details: buffer

Chain of Voltage-gated inwardly rectifying potassium channel KCNH2 (Q12809 whole entry): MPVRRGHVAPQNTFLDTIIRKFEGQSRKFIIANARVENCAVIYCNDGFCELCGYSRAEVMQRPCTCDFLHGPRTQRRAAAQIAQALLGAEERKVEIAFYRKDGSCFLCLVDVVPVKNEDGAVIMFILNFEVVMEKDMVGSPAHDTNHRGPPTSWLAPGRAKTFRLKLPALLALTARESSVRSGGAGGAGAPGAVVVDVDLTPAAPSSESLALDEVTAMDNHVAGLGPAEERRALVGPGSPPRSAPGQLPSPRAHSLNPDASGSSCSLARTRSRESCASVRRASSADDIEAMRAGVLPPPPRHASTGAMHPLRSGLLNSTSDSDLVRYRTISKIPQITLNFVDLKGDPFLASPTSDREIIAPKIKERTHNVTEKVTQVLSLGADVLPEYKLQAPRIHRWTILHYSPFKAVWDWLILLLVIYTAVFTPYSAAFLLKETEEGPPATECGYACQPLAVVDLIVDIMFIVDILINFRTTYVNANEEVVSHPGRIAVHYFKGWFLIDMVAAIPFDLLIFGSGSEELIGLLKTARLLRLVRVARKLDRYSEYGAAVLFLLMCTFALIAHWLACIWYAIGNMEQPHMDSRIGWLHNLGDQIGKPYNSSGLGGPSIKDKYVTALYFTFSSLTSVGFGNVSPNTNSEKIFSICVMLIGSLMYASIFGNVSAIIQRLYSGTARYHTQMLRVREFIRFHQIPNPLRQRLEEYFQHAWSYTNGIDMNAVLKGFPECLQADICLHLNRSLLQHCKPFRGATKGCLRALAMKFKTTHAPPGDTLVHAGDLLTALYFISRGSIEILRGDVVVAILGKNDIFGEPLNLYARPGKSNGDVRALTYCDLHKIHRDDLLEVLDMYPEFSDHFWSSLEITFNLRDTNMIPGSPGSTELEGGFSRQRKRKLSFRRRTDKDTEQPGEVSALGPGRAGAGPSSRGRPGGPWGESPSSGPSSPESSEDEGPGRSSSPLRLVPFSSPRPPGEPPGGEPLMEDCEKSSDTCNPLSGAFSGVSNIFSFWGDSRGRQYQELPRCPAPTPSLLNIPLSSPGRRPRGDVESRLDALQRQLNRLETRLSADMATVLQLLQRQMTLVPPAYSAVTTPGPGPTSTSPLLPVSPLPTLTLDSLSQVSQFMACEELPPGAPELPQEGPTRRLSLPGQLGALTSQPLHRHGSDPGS

solubility [1]: > 100 mM | logD [2]: 5.29
SMILES: COc1cc(/C=C2\CCCN3C2=NOC[C@@H]3c2cc(F)c(F)c(F)c2)ccc1-n1cnc(C)c1.Cl

Ratio IC50 [7]: > 105 | IC50 (Gamma-secretase [8]): 191 nM | IC50 (Gamma-secretase [9]): > 20 µM
SMILES: CNC[C@]1(c2ccc(F)cc2)ON=C2/C(=C/c3ccc(-n4cnc(C)c4)c(OC)c3)CCCN21

Ratio IC50 [7]: 192 | IC50 (Gamma-secretase [8]): 103 nM | IC50 (Gamma-secretase [9]): 19.7 µM
SMILES: COc1cc(/C=C2\CCCN3C2=NOC3(CO)c2ccc(F)cn2)ccc1-n1cnc(C)c1 (single isomer, unassigned)

Ratio IC50 [7]: > 250 | IC50 (Gamma-secretase [8]): 80 nM | IC50 (Gamma-secretase [9]): > 20 µM
SMILES: COc1cc(/C=C2\CCCN3C2=NO[C@]3(CNCCO)c2ccc(F)cc2)ccc1-n1cnc(C)c1

IC50 (Gamma-secretase [8]): 7640 nM | IC50 (Gamma-secretase [9]): > 20 µM | Stability [11]: Stable | pKa [10]: 5.8
SMILES: COc1cc(/C=C2\CCCN3C2=NO[C@@]3(CO)c2ccc(F)cc2)ccc1-n1cnc(C)c1

Ratio IC50 [7]: > 225 | IC50 (Gamma-secretase [8]): 89 nM | IC50 (Gamma-secretase [9]): > 20 µM
SMILES: COc1cc(/C=C2\CCCN3C2=NO[C@@]3(c2ccc(F)cc2)[C@H](C)O)ccc1-n1cnc(C)c1

Ratio IC50 [7]: > 101 | IC50 (Gamma-secretase [8]): 199 nM | IC50 (Gamma-secretase [9]): > 20 µM
SMILES: COc1cc(/C=C2\CCCN3C2=NO[C@]3(CN(C)C(C)=O)c2ccc(F)cc2)ccc1-n1cnc(C)c1

Ratio IC50 [7]: 280 | IC50 (Gamma-secretase [8]): 26 nM | IC50 (Gamma-secretase [9]): 7.16 µM
SMILES: COc1cc(/C=C2\CCCN3C2=NOC3(CO)c2cccc(F)c2)ccc1-n1cnc(C)c1 (single isomer, unassigned)

IC50 (Gamma-secretase [8]): 60 nM
SMILES: COCCCN(C(=O)/C=C/c1ccc(-n2cnc(C)c2)c(OC)c1)c1cccc2ccccc12

Ratio IC50 [7]: 316 | IC50 (Gamma-secretase [8]): 21 nM | IC50 (Gamma-secretase [9]): 6.75 µM
SMILES: COc1cc(/C=C2\CCCN3C2=NOC3(CO)c2cc(F)cc(F)c2)ccc1-n1cnc(C)c1 (single isomer, unassigned)

IC50 (Gamma-secretase [8]): 187 nM | Stability [29]: Stable | IC50 (Gamma-secretase [30]): 2000 nM | Stability [31]: Unstable
SMILES: COCCCN1C(/C=C/c2ccc(-n3cnc(C)c3)c(OC)c2)=NOC1(C)c1ccc(F)cc1 (racemic)

The next lines start with the compound.

SMILES: COc1cc(/C=C2\CCCN([C@@H](C)c3ccc(F)cc3)C2=O)ccc1-n1cnc(C)c1
Activity (Rattus norvegicus [3]): 44% | Activity (Rattus norvegicus [4]): 55% | Activity (Canis familiaris): Non-toxic | Papp A→B [5]: 57.9 ×10⁻⁶ cm/s | IC50 [6]: 1200 nM

SMILES: COc1cc(/C=C2\CCCN3C2=NOC3(CO)c2cncc(F)c2)ccc1-n1cnc(C)c1 (single isomer, unassigned)
Ratio IC50 [7]: > 189 | IC50 (Gamma-secretase [8]): 106 nM | IC50 (Gamma-secretase [9]): > 20 µM

SMILES: COc1cc(/C=C2\CCCN(C3(c4ccccc4)CCOCC3)C2=O)ccc1-n1cnc(C)c1
IC50 (Gamma-secretase [8]): 56 nM

SMILES: COC[C@]1(c2ccc(F)cc2)ON=C2/C(=C/c3ccc(-n4cnc(C)c4)c(OC)c3)CCCN21
Ratio IC50 [7]: 144 | IC50 (Gamma-secretase [8]): 122 nM | IC50 (Gamma-secretase [9]): 17.5 µM

SMILES: COc1cc(/C=C2\CCCN3C2=NOC3(CO)c2ccccc2F)ccc1-n1cnc(C)c1 (single isomer, unassigned)
Ratio IC50 [7]: 189 | IC50 (Gamma-secretase [8]): 53 nM | IC50 (Gamma-secretase [9]): 10.1 µM

SMILES: COc1cc(/C=C2\CCCN3C2=NOC3(CO)c2ccccc2)ccc1-n1cnc(C)c1 (single isomer, unassigned)
Ratio IC50 [7]: 33 | IC50 (Gamma-secretase [8]): 96 nM | IC50 (Gamma-secretase [9]): 3.21 µM

SMILES: c1ccc(-n2ccnc2)cc1
pKa [10]: 5.1

SMILES: COc1cc(/C=C2\CCCN3C2=NO[C@]3(CN(C)S(C)(=O)=O)c2ccc(F)cc2)ccc1-n1cnc(C)c1
Ratio IC50 [7]: 269 | IC50 (Gamma-secretase [8]): 72 nM | IC50 (Gamma-secretase [9]): 19.3 µM

SMILES: COc1cc(/C=C2\CCCN3C2=NOC3(CO)c2cc(F)c(F)c(F)c2)ccc1-n1cnc(C)c1 (single isomer, unassigned)
Ratio IC50 [7]: 1020 | IC50 (Gamma-secretase [8]): 15 nM | IC50 (Gamma-secretase [9]): 15.8 µM

SMILES: COc1cc(/C=C2\CCCN3C2=NO[C@@]3(c2ccc(F)cc2)[C@@H](C)O)ccc1-n1cnc(C)c1
Ratio IC50 [7]: 350 | IC50 (Gamma-secretase [8]): 46 nM | IC50 (Gamma-secretase [9]): 16.2 µM

SMILES: COc1cc(/C=C2\CCCN3C2=NOC3(CO)c2ccc(C#N)cc2)ccc1-n1cnc(C)c1 (single isomer, unassigned)
Ratio IC50 [7]: > 171 | IC50 (Gamma-secretase [8]): 117 nM | IC50 (Gamma-secretase [9]): > 20 µM

SMILES: COc1cc(/C=C2\CCCN3C2=NOC[C@@H]3c2cc(F)c(F)c(F)c2)ccc1-n1cnc(C)c1
Activity (Rattus norvegicus [12]): Dose-dependent effect | Activity (Rattus norvegicus [13]): Dose-dependent effect | Activity (Rattus norvegicus [14]): Dose-dependent effect | Activity (Rattus norvegicus [15]): Dose-dependent effect | Activity [16]: Active | Activity [17]: Active | Activity (Rattus norvegicus [18]): Dose-dependent effect | Activity (Rattus norvegicus [19]): Dose-dependent effect | Activity (Rattus norvegicus [20]): Dose-dependent effect | Activity [21]: Active | Activity [22]: Active | Activity (Rattus norvegicus [23]): Dose-dependent effect | Activity (Rattus norvegicus [24]): Dose-dependent effect | Activity (Rattus norvegicus [25]): Dose-dependent effect | Activity (Rattus norvegicus [26]): Dose-dependent effect | Activity (Rattus norvegicus [27]): Dose-dependent effect | Activity [28]: Active

SMILES: COc1cc(/C=C2\CCCN3C2=NO[C@]3(CN(C)C)c2ccc(F)cc2)ccc1-n1cnc(C)c1
Ratio IC50 [7]: 96 | IC50 (Gamma-secretase [8]): 196 nM | IC50 (Gamma-secretase [9]): 18.8 µM
